Data from patent US20170038387A1, “METHODS FOR TREATING CHRONIC LYMPHOCYTIC LEUKEMIA AND THE USE OF BIOMARKERS AS A PREDICTOR OF CLINICAL SENSITIVITY TO IMMUNOMODULATORY THERAPIES” (Celgene Corporation, priority 2015, published 2017).

Experiments:
primary CLL samples = experiment: TMT-tagging and mass-spectrometry profiling of relative protein abundance after compound exposure; type: cell-based, human
From the text: Data import: Relative abundance (RA) data was imported into the R statistical programming environment v.3.1.2. Proteins with less than one spectral count in any of the three MS runs for each case scenario were filtered out and relative abundance was scale normalized to the same median by using normalizeBetweenArrays( ) function implemented in the limma package for Bioconductor (see Yang et al., Nucleic Acids Research, 30(4), e15 (2002)).
Comparative analysis: RA scores were log 2-transformed to perform direct comparison of compounds exposure versus DMSO control and a paired moderated t-test (see Smyth, Statistical Applications in Genetics and Molecular Biology, 3(1), article 3 (2004)) was performed by using lmfit( ) and eBayes( ) functions form limma package to test differential relative abundance between experimental conditions. For differential analysis across cases, the log-2 fold changes of replicates for two of the case scenarios were considered.
Linear regression analysis: Linear regression was modeled by using lm( ) function from the stats package. This function provided the correlation coefficients as well as the linear fitted model. Data were assessed for outliers detection within the linear model via the Studentized residuals method (implemented in outlierTest( ) function from car package) and deemed significant if their q-values were under a threshold of 0.05 (5%).
The proteins subjected to the analysis were those with more than one spectral count matched in three MS runs representing each case scenario. A total of 6114, 6070, 5982 and 5382 proteins were retained for each case scenario. Differential expression analysis was applied to the high and consistent coverage of 4594 proteins quantified across all case scenarios. FIGS. 2A-2D show distribution of normalized relative abundances for each replicate of the four case scenarios (Cases B1-B4). The standard deviation of each replicate is represented as a stair-plot line at the bottom of the boxplot. FIGS. 3A-3D show heatmaps representing correlations of log 2 fold-changes of protein levels post compound treatment as compared with DMSO across conditions for all case scenarios. Low correlation of log 2 fold-changes at 6 hours may be due to the alteration of a small subset of proteins at an early time point without strong general effects across the proteome. Stronger correlations at 24 hours can be linked to a higher proportion of proteins perturbed reflecting downstream changes upon compound exposure.

[1] = system: samples from CLL patients; experiment: in vitro proliferation assays on samples from four groups of CLL patients; type: cell-based, human
From the text: The samples used in this study were from four groups of CLL patients.

CLL cell lines = experiment: Thymidine incorporation assay (cell proliferation); type: cell-based
Method: After four days, cells were diluted 1:7 with fresh media, containing the same concentration of treatment compound. Three days later, ^3H-thymidine was added to label proliferating cells for 6-7 hours. Cells were then harvested onto filter plates for counting on a scintillation counter.

PDE6D = experiment: Western blot of residual PDE6D protein level; type: cell-based; details: 1 μM Compound A vs 10 μM lenalidomide, 72 hours; EHEB, I83-E95, Mec2, CII, and CI
Method: Cells were then harvested and processed for SDS-PAGE and western blot. PDE6D antibody was purchased from Pierce and used at 1:300. For western blot quantification, the band intensity was measured using an Odyssey imager and then normalized to β-actin loading controls. Scatter plot: […]

[2] = Cmp A vs. len, Case B1, 10 μM, 24 hours
[3] = Cmp A vs. len, Case B2, 10 μM, 24 hours
[4] = Cmp A vs. len, Case B3, 10 μM, 24 hours
[5] = FIG. 5 heatmap, 10 μM, 24 hours, vs DMSO

Cc1nc2cccc(N)c2c(=O)n1C1CCC(=O)NC1=O (stereo not drawn) [Compound A, 3-(5-amino-2-methyl-4-oxo-4H-quinazolin-3-yl)-piperidine-2,6-dione]
logFC IRF8 (Q02556) (primary CLL samples; [2]): −0.5643 | logFC KLF13 (Q9Y2Y9) (primary CLL samples; [2]): −1.092 | logFC LGALS9 (O00182) (primary CLL samples; [2]): −0.5646 | logFC MARCKS (P29966) (primary CLL samples; [2]): 1.438 | logFC NDE1 (Q9NXR1) (primary CLL samples; [2]): 0.7281 | logFC NFKBIE (O00221) (primary CLL samples; [2]): −0.7408 | logFC PTK2B (Q14289-2) (primary CLL samples; [2]): 0.9815 | logFC SAMSN1 (Q9NSI8) (primary CLL samples; [2]): 0.6554 | logFC SELL (P14151-2) (primary CLL samples; [2]): −1.823 | logFC SLAMF1 (Q13291) (primary CLL samples; [2]): 0.9251 | logFC SNX20 (Q7Z614) (primary CLL samples; [2]): −0.5611 | logFC SOD2 (P04179) (primary CLL samples; [2]): 0.6081 | logFC TCF7 (P36402-3) (primary CLL samples; [2]): −0.7071 | logFC TRAF1 (Q13077) (primary CLL samples; [2]): 0.768 | logFC WIZ (M0QXA7) (primary CLL samples; [2]): −0.4839 | logFC ZBTB10 (Q96DT7) (primary CLL samples; [2]): 0.9382 | logFC IKZF1 (Q13422) (primary CLL samples; [3]): −2.186 | logFC IKZF3 (Q9UKT9) (primary CLL samples; [3]): −2.626 | logFC CD40 (P25942) (primary CLL samples; [4]): 0.8064 | logFC CR2 (P20023-3) (primary CLL samples; [4]): 0.7925 | logFC CTSS (P25774) (primary CLL samples; [4]): 0.5932 | logFC GBP1 (P32455) (primary CLL samples; [4]): 1.117 | logFC IKZF1 (Q13422) (primary CLL samples; [4]): −2.686 | logFC IKZF3 (Q9UKT9) (primary CLL samples; [4]): −1.425 | logFC ISG20 (Q96AZ6) (primary CLL samples; [4]): 0.6234 | logFC PTK2B (Q14289-2) (primary CLL samples; [4]): 0.8361 | logFC SAMSN1 (Q9NSI8) (primary CLL samples; [4]): 0.89 | logFC SASH1 (O94885) (primary CLL samples; [4]): 0.7177 | logFC SELL (P14151-2) (primary CLL samples; [4]): −1.03 | logFC SEMA7A (O75326) (primary CLL samples; [4]): 0.904 | logFC SLAMF1 (Q13291) (primary CLL samples; [4]): 1.086 | logFC SOD2 (P04179) (primary CLL samples; [4]): 0.6319 | logFC TRAF1 (Q13077) (primary CLL samples; [4]): 0.7523 | logFC PDE6D (O43924) (primary CLL samples; Cmp A vs. len, Case B4, 10 μM, 24 hours): −1.494 | IKZF1 (Ikaros) protein level (primary CLL samples; [5]): decreases across all experimental conditions with stronger effect upon Compound A exposure | levels of Group 4 proteins (6 proteins including IKZF3 and a second IKZF1 isoform) upon exposure (primary CLL samples; [5]): decrease significantly | protein abundance levels of Group 3 proteins (SMNX20, SELL, KLF13, WIZ, IKZF1, NFKBIE, TCF7 and IRF8) upon exposure (primary CLL samples; [5]): decrease | STAT1 protein abundance, log 2 fold-change vs DMSO (primary CLL samples; resistant scenario (Case B4)): −0.018 | STAT1 protein abundance, log 2 fold-change vs DMSO (primary CLL samples; sensitive patient sample (Case B3)): 0.547 | effect on cell proliferation ([1]; samples from the fourth group of patients (Case B4)): neither Compound A nor lenalidomide had any effect on cell proliferation | effect on cell proliferation ([1]; samples from the second group of patients (Case B2)): stronger proliferation reduction effect than lenalidomide | effect on cell proliferation ([1]; samples from the third group of patients (Case B3)): reduced cell proliferation | cell growth inhibition (CLL cell lines; 1 μM Compound A vs 10 μM lenalidomide, EHEB, I83-E95, Mec2, CII, and CI): more cell growth inhibition | responsiveness of cell lines to treatment (CLL cell lines; Bucket #1 (EHEB and I83-E95)): responsive to both compounds | responsiveness of cell lines to treatment (CLL cell lines; Bucket #2 (Mec2, CII, and CI)): more sensitive to Compound A than to lenalidomide | responsiveness of cell lines to treatment (CLL cell lines; Bucket #3 (WA-C3-CD5, WA-OSEL, Mec1, and PGA1)): responsive to Compound A | responsiveness of cell lines to treatment (CLL cell lines; Bucket #4 (HG3)): not responsive to either Compound A or lenalidomide | PDE6D reduction (PDE6D): more PDE6D reduction
